From US10829489B2, “Bicyclic heterocyclic derivatives” (Merck Patent GmbH, priority 2015, dated 2020)

Columns and labels:
[1] = target: PDHK2 (Homo sapiens (Human), UniProt Q15119); assay: Biochemical activity testing of PDHK2: PDC inactivation assay; details: human rec PDHK2, PDC inactivation assay; read-out: IC50 PDHK2 (enzyme assay)
Source text: Biochemical Activity Testing of PDHK2: PDC Inactivation Assay
The biochemical activity assay for PDHK2 is based on the inactivation of PDC through phosphorylation by PDHK2. The assay is run in two steps: the enzymatic PDHK2 reaction in which isolated PDC is phosphorylated by PDHK2 with ATP as co-substrate and the PDC activity assay in which pyruvate and NAD are converted to acetyl-CoA and NADH. The PDC activity correlates to the increase in NADH and thereby is detectable directly via the increasing fluorescence signal (Exc 340 nm, Em 450 nm). Inhibition of PDHK2 results in a lower phosphorylation status and thereby a less decrease in activity of PDC and a stronger increase in NADH fluorescence signal.
The PDC inactivation assay is performed in Greiner 384-well microtiter plates and is used for high throughput screen. […] The first fluorescence measurement is performed on a Perkin Elmer Envision (Exc 340 nm, Em 450 nm). […] Afterwards a second fluorescence measurement is performed and the PDC activity is calculated by the difference between both measurements. […] The inhibitory values (IC50) were determined using either the program Symyx Assay Explorer® or Condosseo® from GeneData.

[2] = target: human PDHK2 (12-407) (Homo sapiens (Human), UniProt Q15119); assay: Isothermal titration calorimetry (ITC) binding; details: 30° C.
Procedure: Isothermal Titration Calorimetry
ITC measurements were performed with a VP-ITC micro calorimeter (Microcal, LLC/GE Healthcare Bio-Sciences AB, Uppsala, Sweden). In general titrations were performed by titrating the protein (50 μM) to the test compound (5 μM) in 12 μl injections. All binding experiments were carried out at 30° C. In general the test compounds were diluted form DMSO stock solutions into the measurement buffer with a maximum final concentration of 1% DMSO. The measurement buffer was 20 mM HEPES, 135 mM KCl, 1 mM TCEP, 2 mM MgCl2, 15 mM NaH2PO4, pH 7.5. The human PDHK2 (12-407) was produced in E. coli as his-tagged protein and purified by affinity chromatography. The tag was removed by side specific proteolysis. Before titration the protein buffer was changed to the measurement buffer containing the same DMSO concentration as the test compound dilution. ITC data analysis was performed using Origin 7 calorimetry software from the same supplier. For most measurements a binding model of one binding site was assumed. According to the applied mathematical model it is possible to calculate the binding constant (KA), the observed binding enthalpy (ΔH^obs) as well as the stoichiometry (N) of the formed complex. Preceding analysis the raw data was corrected for the heats of dilution by extrapolating from the saturation value from the end of titration. In order to allow for direct comparison between the respective experimental series and protein preparations the protein concentration was corrected by referencing titrations to a well behaved standard inhibitor. The apparent stoichiometry values defined the fraction of binding competent protein and compensated for relative errors in protein concentration measurements. This corrected protein concentration was used to set up ITC experiment series with test compounds. Any deviations from ideal 1:1 stoichiometry observed here were attributed to errors in compound concentration. This nominal compound concentration was corrected as well to achieve 1:1 stoichiometry in the fit.

[3] = tested on: PDH-E1alpha (pSer300) in HEK293T cells; assay: Cellular immunofluorescence assay for compound activity (Anti-PDH-E1alpha pSer300); assay type: cell-based; details: Homo sapiens, HEK-293T, 5 hours incubation, read-out: IC50 (cell data)
Procedure: Cellular Assay for Determination of Compound Activities
Compound activities were determined in a cellular immunofluorescence assay. Human HEK293T cells were seeded into black 384-well plates with clear bottom and grown overnight.
Next day, test compounds were added to the wells and the plates incubated for 5 hours. Following this, cells were fixed with formaldehyde, permeabilised and blocked. The primary antibody, Anti-PDH-E1alpha (pSer300), AP1064 (Merck Millipore) was added and incubated overnight in the plate wells. Next, cells were washed and the secondary antibody, Alexa Fluor 488, goat anti-rabbit ab (A-11008, Invitrogen) was added together with Hoechst 33258 (H3569, Invitrogen) and incubated for 1 hour in the plate wells. Finally, cells were washed and the plates were measured on the laser scanning cytometer acumen hci (TTpLabtech).
The raw data were normalized against a pharmacological inhibitor control and dose response curves were generated by plotting the percent effect values using the software package Genedata screener (Genedata).

| SMILES | IC50 [1] [nM] | Kd [2] [nM] | IC50 [3] [nM] |
| --- | --- | --- | --- |
| COc1ccc(-n2ncc3c2[C@@H](C)CN(C(=O)[C@@](C)(O)C(F)(F)F)C3)cn1 [Compound A31, (R)-3,3,3-Trifluoro-2-hydroxy-1-[(S)-1-(6-methoxy-pyridin-3-yl)-7-methyl-1,4,6,7-tetrahydro-pyrazolo[4,3-c]pyridin-5-yl]-2-methyl-propan-1-one] | 3000 to 50000 |  |  |
| C[C@@](O)(C(=O)N1CCc2c(ncn2-c2ccc(F)cc2)C1)C(F)(F)F [Compound A44, (R)-3,3,3-Trifluoro-1-[1-(4-fluoro-phenyl)-1,4,6,7-tetrahydro-imidazo[4,5-c]pyridin-5-yl]-2-hydroxy-2-methyl-propan-1-one] |  | < 300 |  |
| COc1ccc(-n2ncc3c2[C@H](C)CN(C(=O)[C@@](C)(O)C(F)(F)F)C3)cn1 [Compound A30, (R)-3,3,3-Trifluoro-2-hydroxy-1-[(R)-1-(6-methoxy-pyridin-3-yl)-7-methyl-1,4,6,7-tetrahydro-pyrazolo[4,3-c]pyridin-5-yl]-2-methyl-propan-1-one] | < 300 | < 300 | < 300 |
| C[C@@](O)(C(=O)N1CCc2c(ncn2-c2ccc(Cl)cc2)C1)C(F)(F)F [Compound A45, (R)-1-[1-(4-Chloro-phenyl)-1,4,6,7-tetrahydro-imidazo[4,5-c]pyridin-5-yl]-3,3,3-trifluoro-2-hydroxy-2-methyl-propan-1-one] |  | < 300 |  |
